Assay results as given in PMC11352258, “The Influence of Betulin and Its Derivatives on Selected Colorectal Cancer Cell Lines’ Viability and Their Antioxidant Systems” (Cells, 2024).
Where “and” joins values, the source holds several entries; their conditions need not be identical. Equal values may be shown once.

Experiments:
[1] = test system: glutathione peroxidase (GPx) activity in RKO cells; assay: GPx activity in RKO cells; type: cell-based; conditions: 10 µg/mL, 24 h
Procedure: (§1) In addition, two colorectal cancer cell lines, RKO and SW1116, were distinguished based on a different response to the EB5 derivative. To perform subsequent analyses, the selected CRC lines were treated with EB5 derivative at a concentration of 10 µg/mL for 24 h. Untreated cells were used as a negative control. Three biological replicates were performed.
(§2) To examine the antioxidant capacity of the cells as well as lipid peroxidation and to evaluate the activity of antioxidant enzymes, the cells were suspended in lysis buffer (containing 4 mg of […]™ Protease Inhibitor Cocktail and 10 µL of Phosphatase Inhibitor Cocktail 3 in 1 mL of PBS; Sigma-Aldrich, St Louis, MO, USA). Subsequently, the cells were placed in liquid nitrogen for 30 min, followed by storage at −80 °C until further analysis.
(§3) Superoxide dismutase (SOD), glutathione peroxidase (GPx) and catalase (CAT) activities were assessed using a commercially purchased Cayman Chemicals Superoxide Dismutase Assay Kit, a Cayman Chemicals Glutathione Peroxidase Assay Kit and a Catalase Assay Kit (Cayman Chemicals, Ann Arbor, MI, USA), respectively, according to the manufacturer’s recommendations and based on a previous study. […] The level of change in absorbance was measured spectrophotometrically at the appropriate wavelength for the assay, i.e., for SOD in the range 440–460 nm, for GPx at 340 nm and for CAT at 540 nm.

[2] = test system: SW1116 cells; assay: MTT cytotoxicity assay, SW1116; conditions: for viability at 10 µg/mL / IC50: Homo sapiens, SW 1116, 24 h; for IC50: read-out: IC50 value
Procedure: (§4) Six colorectal cancer cell lines, RKO, HT29, DLD-1, HCT116, Caco2 and SW1116 (CRL-2577, HTB-38, CCL-221, CCL-247, HTB-37, CCL-233; ATCC, Manassas, VA, USA, respectively, for CRC lines), and one normal cell line, CCD-841CoN (CRL-1790, ATCC, USA), were routinely cultured at 37 °C in a 5% CO2 incubator (Direct Heat CO2; Thermo Scientific, Waltham, MA, USA) in cell line-appropriate culture medium according to the manufacturer’s recommendations. Eagle’s minimum essential medium (EMEM) was used to culture RKO, Caco2 and CCD-841CoN lines, while McCoy’s 5A medium was used for HT29 and HCT116 lines. DLD-1 cells were grown in RPMI-1640 medium, whereas SW1116 cells were maintained in Leibovitz’s L-15 medium. All culture media were supplemented with 10% fetal bovine serum (EuroClone, Milan, Italy), and gentamycin at the concentration […] (BioWhittaker, Lonza, Basel, Switzerland) was also applied to prevent culture contamination.
(§5) For this purpose, cells were exposed to the test compound for 24 h at concentrations of 0.1, 1, 10, 20, 50 and 100 μg/mL. Control cells were not treated with the compounds. MTT (0.25 mg/mL) was then added to the cultures and incubated for 3 h at 37 °C. After a time, the cells were washed with phosphate buffered saline (PBS), and next, formazan dye was dissolved in 100 μL of dimethyl sulfoxide (Sigma-Aldrich, St Louis, MO, USA). Absorbance was measured at 540 nm using a Wallac 1420 VICTOR microplate reader (PerkinElmer, Waltham, MA, USA).

[3] = test system: superoxide dismutase (SOD) activity in RKO cells; assay: SOD activity in RKO cells; type: cell-based; conditions: 10 µg/mL, 24 h
Procedure: as §1, §2, §3

[4] = test system: Caco2 cells; assay: MTT cytotoxicity assay, Caco2; type: cell-based; conditions: Homo sapiens, Caco-2; Caco2, MTT, 24 h; read-out: IC50 value
[5] = test system: DLD-1 cells; assay: MTT cytotoxicity assay, DLD-1; type: cell-based; conditions: Homo sapiens; DLD-1, MTT, 24 h; read-out: IC50 value
Source text: (§6) Control cells were not treated with the compounds.

[6] = test system: catalase (CAT) activity in SW1116 cells; assay: CAT activity in SW1116 cells; type: cell-based; conditions: SW1116, 10 µg/mL, 24 h
Procedure: as §1, §2
Superoxide dismutase (SOD), glutathione peroxidase (GPx) and catalase (CAT) activities were assessed using a commercially purchased Cayman Chemicals Superoxide Dismutase Assay Kit, a Cayman Chemicals Glutathione Peroxidase Assay Kit and a Catalase Assay Kit (Cayman Chemicals, Ann Arbor, MI, USA), respectively, according to the manufacturer’s recommendations and based on a previous study. The cell supernatant from previously prepared cell lysates of the tested lines provided material for further analyses. The level of change in absorbance was measured spectrophotometrically at the appropriate wavelength for the assay, i.e., for SOD in the range 440–460 nm, for GPx at 340 nm and for CAT at 540 nm.

[7] = test system: RKO cells; assay: MTT cytotoxicity assay, RKO; conditions: 24 h; for viability at 10 µg/mL / IC50: Homo sapiens; for IC50: read-out: IC50 value
Procedure: as §4, §5

[8] = test system: RKO cells; assay: Lipid peroxidation, MDA assay, RKO; type: cell-based; conditions: 10 µg/mL, 24 h
Procedure: (§7) In addition, two colorectal cancer cell lines, RKO and SW1116, were distinguished based on a different response to the EB5 derivative. […] Untreated cells were used as a negative control. Three biological replicates were performed. To examine the antioxidant capacity of the cells as well as lipid peroxidation and to evaluate the activity of antioxidant enzymes, the cells were suspended in lysis buffer (containing 4 mg of […]™ Protease Inhibitor Cocktail and 10 µL of Phosphatase Inhibitor Cocktail 3 in 1 mL of PBS; Sigma-Aldrich, St Louis, MO, USA). Subsequently, the cells were placed in liquid nitrogen for 30 min, followed by storage at −80 °C until further analysis. To assess the level of lipid peroxidation, the Malondialdehyde Assay Kit (Aoxre BioSciences, Burlingame, CA, USA) was used, according to the manufacturer’s recommendations.

[9] = test system: CAT gene expression in RKO cells; assay: CAT mRNA, real-time RT-qPCR, RKO; type: cell-based; conditions: 10 µg/mL, 24 h
Procedure: as §1
(§8) Total RNA from treated cells was extracted using TRIzol reagent (Sigma-Aldrich, St Louis, MO, USA) according to the manufacturer’s instructions. The obtained RNA was assessed qualitatively and quantitatively by agarose gel electrophoresis and by spectrophotometric measurement using MaestroNano MN-913 (MaestroGen Inc., Las Vegas, NV, USA), respectively. The obtained extracts provided the starting material for the assessment of genes changes at the mRNA level.
(§9) Changes in the expression of SOD1, SOD2, CAT and GPX3 genes involved in antioxidant systems were assessed by real-time RT-qPCR using a LightCycler® 480 System apparatus (Roche, Basel, Switzerland). A commercially purchased GoTaq® 1-Step RT-qPCR System (Promega, Madison, WI, USA) was used, while the primers and reaction conditions were the same as in the previous study performed by Kruszniewska-Rajs et al.. GAPDH was used as the reference gene. The mRNA expression level studied genes were then determined by the 2^−ΔCt relative quantification method. All samples were tested in triplicate. The specificity of the reaction was evaluated based on the melting temperature curve, as well as using electrophoresis of the amplification products in a 2% agarose gel.

[10] = test system: HT29 cells; assay: MTT cytotoxicity assay, HT29; type: cell-based; conditions: Homo sapiens, HT-29; HT29, MTT, 24 h; read-out: IC50 value
Source text: as §6

[11] = test system: colorectal cancer cell lines RKO, HT29, DLD-1, HCT116, Caco2 and SW1116; assay: MTT cytotoxicity assay, statements over all tested cell lines; conditions: MTT, 24 h
Procedure: as §4, §5

[12] = test system: HCT116 cells; assay: MTT cytotoxicity assay, HCT116; type: cell-based; conditions: Homo sapiens; HCT 116, MTT, 24 h; read-out: IC50 value
Source text: as §6

[13] = test system: SW1116 cells; assay: Lipid peroxidation, MDA assay, SW1116; type: cell-based; conditions: SW1116, 10 µg/mL, 24 h
Procedure: as §7

[14] = test system: CCD-841CoN cells; assay: cells; type: cell-based; conditions: Homo sapiens; CCD-841CoN normal cells, MTT, 24 h; read-out: IC50 value
Source text: as §6

[15] = test system: SOD2 gene expression in SW1116 cells; assay: SOD2 mRNA, real-time RT-qPCR, SW1116; type: cell-based; conditions: SW1116, 10 µg/mL, 24 h
Procedure: as §1, §8, §9

[16] = test system: SOD1 gene expression in RKO cells; assay: SOD1 mRNA, real-time RT-qPCR, RKO; type: cell-based; conditions: 10 µg/mL, 24 h
Procedure: as §1, §8, §9

[17] = test system: superoxide dismutase (SOD) activity in SW1116 cells; assay: SOD activity in SW1116 cells; type: cell-based; conditions: SW1116, 10 µg/mL, 24 h
Procedure: as §1, §2, §3

[18] = test system: CAT gene expression in SW1116 cells; assay: CAT mRNA, real-time RT-qPCR, SW1116; type: cell-based; conditions: SW1116, 10 µg/mL, 24 h
Procedure: as §1, §8, §9

[19] = test system: RKO cells; assay: Total antioxidant capacity (ABTS+), RKO; type: cell-based; conditions: 10 µg/mL, 24 h
Procedure: as §1, §2
The ABTS+ radical cation was used to assess the total antioxidant capacity (TAC) of the tested cells. The principle of the method is based on the reduction of the formed blue-green chromophore ABTS+ as a result of the reaction of ABTS (Sigma-Aldrich, St Louis, MO, USA) with potassium persulphate (Sigma-Aldrich, St Louis, MO, USA). The degree of decolorization of the ABTS+ radical cation depends on the antioxidant activity of the cells and is determined as a function of concentration and time in relation to Trolox reactivity (TEAC-Trolox equivalent antioxidant capacity).

[20] = test system: SOD1 gene expression in SW1116 cells; assay: SOD1 mRNA, real-time RT-qPCR, SW1116; type: cell-based; conditions: SW1116, 10 µg/mL, 24 h
Procedure: as §1, §8, §9

| SMILES | viability at 10 µg/mL [2] [%] | IC50 [2] | IC50 [4] | IC50 [5] | catalase activity compared to the control [6] | viability at 10 µg/mL [7] [%] | IC50 [7] | increase in MDA levels compared to the control cells [8] | CAT gene expression vs. untreated cells [9] | IC50 [10] | IC50 [12] | MDA level compared to the control [13] | further results |
| --- | --- | --- | --- | --- | --- | --- | --- | --- | --- | --- | --- | --- | --- |
| O=c1[nH]cc(F)c(=O)[nH]1 [5FU, 5-fluorouracil] | ≥ 50 | > 100 µg/mL and > 769 µM | > 100 µg/mL and > 769 µM | > 100 µg/mL and > 769 µM | higher catalase activity | ≥ 50 | > 100 µg/mL and > 769 µM | about 62.2% | significant decrease in expression | > 100 µg/mL and > 769 µM | > 100 µg/mL and > 769 µM | did not cause changes | GPx activity vs. cells treated with EB5 [1]: slight increase; SOD activity compared to cells treated with betulin [3]: modest increase; catalase activity compared to cells treated with EB5 [6]: higher catalase activity; catalase activity compared to cells treated with betulin [6]: higher catalase activity; cytotoxic effect compared with the other tested compounds [11]: weaker |
| C=C(C)[C@@H]1CC[C@]2(CO)CC[C@]3(C)[C@H](CC[C@@H]4[C@@]5(C)CC[C@H](O)C(C)(C)[C@@H]5CC[C@]43C)[C@@H]12 [Betulin, lup-20(29)-ene-3β,28-diol] | ≥ 50 | 9.77 µg/mL and 23.1 µM | 11.2 µg/mL and 26.5 µM | 4.29 µg/mL and 10.2 µM | did not cause changes | ≥ 50 | 11.2 µg/mL and 25.2 µM | about 73.1% | No statistically significant changes | 8.49 µg/mL and 20.1 µM | 4.63 µg/mL and 11 µM | did not cause changes | decrease in the viability ([2]; SW1116, 10 µg/mL, 24 h): ≤ 50%; IC50 [14]: 5.26 µg/mL and 12.4 µM; SOD2 gene expression vs. cisplatin [15]: Decreased SOD2 gene expression; SOD1 gene expression vs. cisplatin-treated cells [16]: decrease in SOD1 gene expression; decrease in the viability ([7]; 10 µg/mL): ≤ 50%; increase in SOD activity compared to the untreated cells [17]: about 32.3%; CAT gene expression vs. EB5 derivative [18]: decrease in expression was higher; CAT gene expression vs. cisplatin [18]: decrease in expression was higher; CAT gene expression vs. untreated cells [18]: statistically significant decrease in CAT gene expression; reduction in TAC compared to the control cells [19]: about 26.4%; SOD1 gene expression vs. EB5 derivative [20]: statistically significant difference; SOD1 gene expression vs. cisplatin [20]: statistically significant difference; SOD1 gene expression vs. non-treated cells [20]: statistically significant decrease in mRNA expression; SOD1 gene expression vs. non-treated cells ([20]; listed as B): statistically significant difference |
